Legend:
[1] = tested on: tTGase and Factor XIIIa expression in knee articular cartilage and medial meniscus; assay: Immunohistochemistry of cartilage organ culture; format: cell-based, human; details: organ culture 48 hours
Protocol: Articular cartilage and medial menisci from normal donors were studied in cartilage organ culture in media supplemented with 1% FCS and 1% L-glutamine, as described in the Methods, following 48 hours of treatment with TGFβ 10 ng/ml, IL-1β (1 ng/ml), or medium alone.
Immunohistochemistry was performed as previously described in detail (30,33,34). In brief, immunohistochemical sections (5 microns) were pretreated with bovine testicular hyaluronidase (0.5 mg/ml at 37° C. for 30 min) and incubated in 5% normal goat or rabbit serum for 20 min prior to avidin/biotin peroxidase staining by the ABC method. Hematoxilin was used as the counterstain. Biotinylated anti-rabbit or anti-goat antibodies served as secondary antibodies. Levamisole was added to block endogenous alkaline phosphatase (AP). Negative controls were nonimmune rabbit or goat serum as a substitute for primary antibody.
Meniscal cells were taken from tissue slices removed from the central regions of the medial and lateral menisci. Where indicated, meniscal organ culture was performed by incubating these slices for b 48 hours in DMEM high glucose containing 1% FCS and 1% L-glutamine (and articular cartilage organ culture performed in the same manner, where indicated). Otherwise, we minced meniscal tissue with a scalpel, incubated in DMEM high glucose containing 2 mg/ml clostridial collagenase, 5% FCS, 1% L-glutamine, 100 units/ml Penicillin and 50 μg/ml Streptomycin (Omega Scientific, Tarzana, Calif.), and incubated on a gyratory shaker at 37° C. until the tissue fragments were digested. Residual multicellular aggregates were removed by sedimentation (1,000×g), and cells were washed three times in DMEM containing 5% FCS.

[2] = tested on: meniscal cells and TC28 cells; assay: Matrix calcification, quantitative Alizarin Red S binding assay; format: cell-based, human; details: polyHEME culture up to 10 days; cytokines 10 ng/ml or TGase transfection
Protocol: TC28 cells and meniscal cells were transfected with empty plasmid or a TGase expression construct, and then transferred to polyHEME and cultured for up to 10 days, as described above. For comparison purposes, control untransfected cells were treated with IL-1 or TGFβ(10 ng/ml each) for up to 10 days. To measure matrix calcification, media and cells were removed from the PolyHEME-coated dishes, and 1 ml Alizarin Red S solution (0.5% v/v Alizarin Red S, pH 5.0) added to washed plates at 23° C. for 10 min. After further washing, 100 mM Cetylpyridium Chloride was added for 10 min to release the remaining calcium-bound Alizarin Red S. The solution was collected and read at OD570, with 1.0 OD570=1 unit of Alizarin Red released per μg of DNA per culture dish. n=6 each, studied in triplicate, and using 6 different knee meniscal donors. *p<0.05.
To promote matrix calcification in short-term cultures, we modified a nonadherent chondrocyte culture system (37), and assessed cells that formed calcifying nodules over 10 days in culture. In brief, meniscal and TC28 cells, at 24 hours after the transfection, were washed and removed from the dish using 0.2 mg/ml EDTA, pH 8.0, then transferred to 6 well plates that had been previously coated with a 10% (wt./v) in 95% ethanol solution of Poly (2-Hydroxyethyl methacrylate) (polyHEME). […]
To assay calcification of the pericellular matrix of meniscal cells and TC28 cells, we used a quantitative Alizarin Red S binding assay (38). […] The solution was collected and read at OD570 on a SpectraMAX microplate reader (Molecular Devices, Sunnyvale, Calif.), with 1 OD570=1 unit of Alizarin Red released per μg of DNA per culture dish. We extracted matrix crystals from plates under each condition using a papain-hypochlorite method (39), and the crystals were embedded in Spurr epoxy resin, sectioned, and viewed on a Philips EM340 transmission electron micrograph and analyzed by electron diffraction (40,41).

Factor XIIIa expression ([1]; knee articular cartilage): up-regulated
tTGase expression ([1]; knee articular cartilage): up-regulated tTGase expression
Substance: IL-1β: Human recombinant IL-1β purchased from R&D Systems
tTGase and Factor XIIIa immunostaining ([1]; knee articular cartilage and meniscal cartilage slices, TGFβ 10 ng/ml, IL-1β 1 ng/ml): induced increased tTGase and Factor XIIIa immunostaining
Matrix calcification (bound Alizarin Red S) [2]: significantly increased matrix calcification

Reference: patent US20040109845A1, “Method for inhibiting articular cartilage matrix calcification” (priority 2001, published 2004)
